Reference: patent publication US20250110133A1, “METHOD AND KIT FOR PREDICTING DRUG EFFICACY OF LUNG CANCER TREATMENT AND METHOD FOR TREATING LUNG CANCER” (National Health Research Institutes, priority 2023, published 2025)
“Also recorded” adds a separate entry of the source. Read-outs that look alike come from different tables or passages of the source.

Legend:
PC9 cells [1] = assay: Colony formation assay for gefitinib sensitivity; format: cell-based, human; conditions: 10-day treatment
Experimental: Data are presented as mean±standard error of mean, n=3. Differences between shLDOC1 and shCtrl at each indicated concentration are analyzed using Student's t test; * p<0.05 and ** p<0.01.

PC9 cells [2] = system: PC9 cells
Experimental: (§1) Cells were seeded in 96-well cell culture plates and treated the next day with the indicated concentrations of indicated EGFR-TKI. After 3 days, cell numbers were determined with MTT assay.
(§2) All cells are cultured in media containing 10% FBS (Gibco), 1% penicillin (Thermo Fisher, Waltham, MA, USA), and 1% streptomycin (Thermo Fisher); the cells are incubated at 37° C. in a humidified chamber with 5% CO2.
(§3) Cells are seeded at a density of 5×10^3 per well in a 96-well plate. […] An appropriate amount of DMSO is also added to the control cells. After 72 h of treatment, the cells are incubated with a solution of MTT (3-(4,5-dimethylthiazol-2-yl)-2,5-diphenyltetrazolium bromide) (Sigma-Aldrich) for 4 h at 37° C. Subsequently, the medium is aspirated, and 100 μL DMSO is added to solubilize the formazan. Colored formazan converted from MTT using viable cells is measured at 570 nm with a microplate reader (BioRad). Experiments are performed in triplicate. IC50 values are determined using the scientific and statistical software GraphPad Prism 10.0.0.

HCC827 cells [3] = assay: cells; conditions: Homo sapiens, HCC827, 72 h, read-out: half-maximal inhibitory concentration (IC50)
Experimental: (§4) The HCC827 cell line is provided by Dr. Yi-Rong Chen from the Institute of Molecular and Genomic Medicine, National Health Research Institutes, Taiwan. […] PC9 and HCC827 cells are maintained in RPMI1640 (Cytiva). […] All cells are cultured in media containing 10% FBS (Gibco), 1% penicillin (Thermo Fisher, Waltham, MA, USA), and 1% streptomycin (Thermo Fisher); the cells are incubated at 37° C. in a humidified chamber with 5% CO2. […] The cells are checked for Mycoplasma (BioSmart, Seoul, Republic of Korea) upon thawing, and throughout the experimental period they consistently tested negative for Mycoplasma.
as §3

PC9 cells [4] = assay: cells; conditions: Homo sapiens, PC-9, 72 h, read-out: half-maximal inhibitory concentration (IC50)
Experimental: as §1, §2, §3

HCC827 cells [5] = conditions: read-out: half-maximal inhibitory concentration (IC50)
Experimental: as §4, §3

## COc1cc2ncnc(Nc3ccc(F)c(Cl)c3)c2cc1OCCCN1CCOCC1 [gefitinib]
PC9 cells [1]; LDOC1-depleted (shLDOC1) PC9 cells
  colony formation under drug treatment: increased the number of cell colonies; also recorded: survive and form colonies
PC9 cells [1]; PC9-shCtrl cells
  colony formation under drug treatment: no colonies

## C=CC(=O)Nc1cc(Nc2nccc(-c3cn(C)c4ccccc34)n2)c(OC)cc1N(C)CCN(C)C [osimertinib]
PC9 cells [2]
  IC50 / inhibitory effect in shLDOC1 cells compared with shCtrl cells: almost the same inhibitory effect
HCC827 cells [3]
  IC50: 1800 nM
PC9 cells [4]
  IC50: 900 nM
HCC827 cells [5]
  IC50: 2300 nM
